From patent US20240182465A1 (GENFLEET THERAPEUTICS (SHANGHAI) INC., priority 2021, published 2024) come the findings set out here.

By IC50 is commonly meant the concentration that inhibits the measured activity by half. Lower therefore signals inhibition by little substance.

The target in assay [1] is HPK1 (Homo sapiens, UniProt Q92918). Nature of the assay: SLP76 phosphorylation assay (intracellular HPK1 inhibitory activity, p-SLP76 Ser376 sandwich ELISA). Conditions: p-SLP76 IC50(nM), Jurkat, Clone E6-1 cells; 1 h compound pre-incubation, anti-CD3 beads stimulation 20 min; SLP76 phosphorylation at S376. (In an ELISA, binding on a coated surface is turned into a signal by an enzyme label.)
Target sequence in this assay (Q92918 whole entry): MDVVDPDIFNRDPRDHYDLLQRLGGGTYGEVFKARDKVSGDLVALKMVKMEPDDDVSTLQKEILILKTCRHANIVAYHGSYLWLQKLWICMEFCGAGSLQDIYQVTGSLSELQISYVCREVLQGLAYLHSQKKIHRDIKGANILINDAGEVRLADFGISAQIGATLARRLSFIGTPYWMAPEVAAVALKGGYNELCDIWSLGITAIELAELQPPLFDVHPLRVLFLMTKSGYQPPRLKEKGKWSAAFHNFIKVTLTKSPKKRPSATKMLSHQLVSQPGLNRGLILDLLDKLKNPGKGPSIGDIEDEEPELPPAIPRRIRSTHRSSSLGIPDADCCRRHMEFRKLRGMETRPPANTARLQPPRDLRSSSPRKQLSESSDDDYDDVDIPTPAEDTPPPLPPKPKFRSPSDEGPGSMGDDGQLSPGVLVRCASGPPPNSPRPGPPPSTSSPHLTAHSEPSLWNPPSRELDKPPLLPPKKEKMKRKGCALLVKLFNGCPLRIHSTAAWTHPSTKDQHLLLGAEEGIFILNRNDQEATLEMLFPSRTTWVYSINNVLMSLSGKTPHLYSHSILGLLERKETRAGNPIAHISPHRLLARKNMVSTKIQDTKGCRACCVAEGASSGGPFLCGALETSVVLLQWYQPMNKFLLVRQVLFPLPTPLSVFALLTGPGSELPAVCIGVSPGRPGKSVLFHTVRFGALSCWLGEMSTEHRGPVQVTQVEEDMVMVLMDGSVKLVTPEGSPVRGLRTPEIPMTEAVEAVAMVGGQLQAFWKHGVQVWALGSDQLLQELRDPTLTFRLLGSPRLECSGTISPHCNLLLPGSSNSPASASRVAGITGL

Assay [2] has as its target T1, HPK1 (Homo sapiens, UniProt Q92918).
T1 sequence (Q92918 1-346 limits assumed): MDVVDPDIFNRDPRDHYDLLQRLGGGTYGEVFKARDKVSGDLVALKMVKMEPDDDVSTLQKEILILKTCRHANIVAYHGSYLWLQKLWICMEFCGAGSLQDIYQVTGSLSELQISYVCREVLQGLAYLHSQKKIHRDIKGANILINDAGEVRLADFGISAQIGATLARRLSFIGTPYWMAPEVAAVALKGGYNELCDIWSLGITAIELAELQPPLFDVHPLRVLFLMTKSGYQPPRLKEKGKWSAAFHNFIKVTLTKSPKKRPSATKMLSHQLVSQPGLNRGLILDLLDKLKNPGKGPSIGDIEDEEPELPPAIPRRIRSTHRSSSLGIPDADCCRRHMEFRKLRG
As to the kind of experiment: HPK1 kinase activity assay (ADP-Glo). Conditions: HPK1 Kinase activity IC50 (nM), 1 nM HPK1, 10 μM ATP, 0.1 μg/μL MBP.
Method: Preparation of buffer: 1× reaction buffer (40 mM Tris-HCl, 20 mM MgCl2, 0.01% Brij35, 50 μM DTT, 0.1 mg/ml BSA) was prepared using sterile water, which was prepared and used on the day of the experiment.
Preparation of 1000× drug stock plate: a 1000× compound stock plate was prepared. […] The compound stock plate was sealed with a sealing film and stored in a −20° C. refrigerator for later use.
Compound preparation and dosing: the 1000× drug stock plate was taken and melted at room temperature in the dark. Then 5× drug intermediate plate was prepared using reaction buffer and mixed well. 2 μL was transferred from the 5× drug intermediate plate into a 384-well plate, and negative control well and positive control well (in which 2 μL reaction buffer containing 0.5% DMSO was added) were set. Each point was repeated twice.
Preparation and incubation of reaction mixture: HPK1 protein was diluted to a 2.5× working solution with reaction buffer. 4 μL 2.5×HPK1 protein was added to each well containing test compound and positive control well, and 4 μL of reaction buffer without HPK1 protein was added to the negative control well. The obtained mixture was centrifuged at 1000 rpm for 1 min and then incubated in a 20° C. incubator for 15 min. A 2.5× mixed working solution of MBP protein and ATP was prepared with reaction buffer at concentrations of 0.5 μg/μL and 50 PM, respectively. 4 μL of the mixed working solution of MBP and ATP was added to each well, centrifuged at 1000 rpm for 1 min, and then incubated in a 20° C. incubator for 90 min.
ADP-Glo detection and reading plate: 10 μl ADP-Glo was added to each well of the test plate. The resulting mixture was centrifuged at 1000 rpm for 1 min and incubated in a 20° C. incubator for 60 min. Then 10 μL of the final incubation solution was transferred from the test plate to a new 384-well plate. 10 μL of kinase detection reagent was added to each well, centrifuged at 400 g for 1 min, and incubated in a 20° C. incubator for 60 min. Chemiluminescent signals were read by a microplate reader.

For the compound `Cc1c[nH]c2ncc(-c3cc4c(c([C@@H]5CCCN5)c3)CN(C(=O)c3cnn(CC(F)F)c3)CC4)cc12` [Compound Z306, (S)-[1-(2,2-difluoroethyl)pyrazol-4-yl]-[6-(3-methyl-1H-pyrrolo[2,3-b]pyridin-5-yl)-8-[pyrrolidin-2-yl]-3,4-dihydro-1H-isoquinolin-2-yl]methanone], the IC50 in assay [1] amounted to 170 nM; in assay [2], 0.64 nM.
In the same order, the values of `Cc1c[nH]c2ncc(-c3cc4c(c(C5CC(=O)N5)c3)COCC4)cc12` (centres unmarked) [Compound Z231, 4-(6-(3-methyl-1H-pyrrolo[2,3-b]pyridin-5-yl)isochroman-8-yl)azetidin-2-one] are above 10000 nM and 35.3 nM.
In the same order, the values of `Cc1c[nH]c2ncc(-c3cc4c(c([C@@H]5CCCN5)c3)CN(C(=O)N3CCC(F)(F)CC3)CC4)cc12` [Compound Z440, (S)-(4,4-difluoropiperidin-1-yl)(6-(3-methyl-1H-pyrrolo[2,3-b]pyridin-5-yl)-8(pyrrolidin-2-yl)-3,4-dihydroisoquinolin-2(1H)-yl)methanone] are 142 nM and 0.37 nM.
In the same order, the values of `Cc1c[nH]c2ncc(-c3cc4c(c([C@@H]5CCCN5)c3)COCC4)cc12` (single isomer, unassigned) [Compound Z97-2] are 164 nM and 0.67 nM.
As to `Cc1c[nH]c2ncc(-c3cc4c(c([C@@H]5CCCN5)c3)CCN(C3CCOCC3)C4)cc12` [Compound Z401, (S)-7-(3-methyl-1H-pyrrolo[2,3-b]pyridin-5-yl)-5-(pyrrolidin-2-yl)-2-(tetrahydro-2H-pyran-4-yl)-1,2,3,4-tetrahydroisoquinoline], the half-inhibitory concentration (IC50) in assay [1] was 462 nM; in assay [2], 3.19 nM.
In the same order, the values of `Cc1c[nH]c2ncc(-c3cc4c(c([C@@H]5CCCN5)c3)CCN(C(=O)C3CCOCC3)C4)cc12` [Compound Z312, (S)-1-[7-(3-methyl-1H-pyrrolo[2,3-b]pyridin-5-yl)-5-[pyrrolidin-2-yl]-3,4-dihydroisoquinolin-2(1H)-yl](tetrahydro-2H-pyran-4-yl)methanone] are 88.4 nM and 0.47 nM.
In the same order, the values of `Cc1c[nH]c2ncc(-c3cc4c(c([C@@H]5CCCN5)c3)CN(C(=O)N3CCO[C@H](C)C3)CC4)cc12` [Compound Z359-2, (6-(3-methyl-1H-pyrrolo[2,3-b]pyridin-5-yl)-8-((S)-pyrrolidin-2-yl)-3,4-dihydroisoquinolin-2(1H)-yl) ((R)-2-methylmorpholin)methanone] are 98.1 nM and 0.36 nM.
In the same order, the values of `CCN1Cc2c(cc(-c3cnc4[nH]cc(C)c4c3)cc2[C@@H]2CCCN2)NC1=O` [Compound Z256, (S)-3-ethyl-7-(3-methyl-1H-pyrrolo[2,3-b]pyridin-5-yl)-5-(pyrrolidin-2-yl)-3,4-dihydroquinazolin-2(1H)-one] are 279 nM and 0.8 nM.
`Cc1c[nH]c2ncc(-c3cc4c(c([C@@H]5CCCN5)c3)CN(C(=O)[C@H]3CCOC3)CC4)cc12` [Compound Z219-2, (S)-(6-(3-methyl-1H-pyrrolo[2,3-b]pyridin-5-yl)-8-(pyrrolidin-2-yl)-3,4-dihydroisoquinolin-2(1H)-yl) ((S)-tetrahydrofuran-3-yl)methanone]: the figures for the IC50 in assay [1] and in assay [2] were 122 nM and 0.35 nM, respectively.
For the compound `Cc1c[nH]c2ncc(-c3cc4c(c([C@@H]5CCCN5)c3)CCN(C(=O)C3CC3)C4)cc12` [Compound Z302, (S)-cyclopropyl (7-(3-methyl-1H-pyrrolo[2,3-b]pyridin-5-yl)-5-(pyrrolidin-2-yl)-3,4-dihydroisoquinolin-2(1H)-yl)methanone], the values for the IC50 in assay [1] and in assay [2] were 125 nM and 0.93 nM, respectively.
In the same order, the values of `COCc1cc(N2CCc3cc(-c4cnc5[nH]cc(C)c5c4)cc([C@@H]4CCCN4)c3C2)ccn1` [Compound Z247, (S)-2-(2-(methoxymethyl)pyridin-4-yl)-6-(3-methyl-1H-pyrrolo[2,3-b]pyridin-5-yl)-8-(pyrrolidin-2-yl)-1,2,3,4-tetrahydroisoquinoline] are 151 nM and 0.61 nM.
For `CCNC(=O)N1CCc2c(cc(-c3cnc4[nH]cc(C)c4c3)cc2[C@@H]2CCCN2)C1` [Compound Z295, (S)—N-ethyl-7-(3-methyl-1H-pyrrolo[2,3-h]pyridin-5-yl)-5-(pyrrolidin-2-yl)-3,4-dihydroisoquinoline-2(1H)-carboxamide], the figures for the 50% inhibitory concentration (IC50) in assay [1] and in assay [2] were 214 nM and 1.22 nM, respectively.
In the same order, the values of `Cc1c[nH]c2ncc(-c3cc4c(c([C@@H]5CCCN5)c3)CN(C(=O)[C@H](O)c3ccccc3)CC4)cc12` [Compound Z289, (R)-2-hydroxy-1-(6-(3-methyl-1H-pyrrolo[2,3-b]pyridin-5-yl)-8-((S)-pyrrolidin-2-yl)-3,4-dihydroisoquinolin-2(1H)-yl)-2-acetophenone] are 378 nM and 1.35 nM.
In the same order, the values of `Cc1c[nH]c2ncc(-c3cc4c(c(CNC(C)C)c3)COCC4)cc12` [Compound Z111, N-((6-(3-methyl-1H-pyrrolo[2,3-b]pyridin-5-yl)isochroman-8-yl)methyl)propan-2-amine] are 815 nM and 5.81 nM.
In the same order, the values of `Cc1c[nH]c2ncc(-c3cc4c(c([C@@H]5CCCN5)c3)CCN(c3ccnn3C)C4)cc12` [Compound Z307, (S)-2-(1-methyl-1H-pyrazol-5-yl)-7-(3-methyl-1H-pyrrolo[2,3-b]pyridin-5-yl)-5-(pyrrolidin-2-yl)-1,2,3,4-tetrahydroisoquinoline] are 277 nM and 0.53 nM.
Turning to `CN1CCc2cc(-c3cnc(N)c(-c4cnn(C)c4)c3)cc(C3CCCN3)c2C1` (centres unmarked) [Compound Z4, 3-(1-methyl-1H-pyrazol-4-yl)-5-(2-methyl-8-(pyrrolidin-2-yl)-1,2,3,4-tetrahydroisoquinolin-6-yl)pyridin-2-amine], the IC50 in assay [1] came out at 3570 nM; in assay [2], 48.7 nM.
In the same order, the values of `Cc1cc(C(=O)N2CCc3cc(-c4cnc5[nH]cc(C)c5c4)cc([C@@H]4CCCN4)c3C2)n(C)n1` [Compound Z355, (S)-(1,3-dimethyl-1H-pyrazol-5-yl)(6-(3-methyl-1H-pyrrolo[2,3-b]pyridin-5-yl)-8-(pyrrolidin-2-yl)-3,4-dihydroisoquinolin-2(1H)-yl)methanone] are 196 nM and 0.45 nM.
In the same order, the values of `CC(=O)N1CCc2cc(-c3cnc4[nH]cc(C)c4c3)cc([C@@H]3CCCN3)c2C1` (single isomer, unassigned) [Compound Z98-2] are 152 nM and 0.5 nM.
In the same order, the values of `Cc1c[nH]c2ncc(-c3cc4c(c([C@@H]5CCCN5)c3)CN(C(=O)N3CCOC[C@H]3C)CC4)cc12` [Compound Z358-2, (6-(3-methyl-1H-pyrrolo[2,3-b]pyridin-5-yl)-8-((S)-pyrrolidin-2-yl)-3,4-dihydroisoquinolin-2(1H)-yl) ((R)-3-methylmorpholin)methanone] are 53.2 nM and 0.23 nM.
As for `Cc1c[nH]c2ncc(-c3cc4c(c([C@@H]5CCCN5)c3)CN(C(=O)c3cnn(C5CC5)c3C)CC4)cc12` [Compound Z346, (S)-(1-cyclopropyl-5-methyl-1H-pyrazol-4-yl)-[6-(3-methyl-1H-pyrrolo[2,3-b]pyridin-5-yl)-8-[pyrrolidin-2-yl]-3,4-dihydroisoquinolin-2(1H)-yl]methanone], the IC50 in assay [1] is 226 nM; in assay [2], 0.43 nM.
In the case of `Cc1c[nH]c2ncc(-c3cc4c(c([C@@H]5CCCN5)c3)CN(C(=O)C3CC3)CC4)cc12` [Compound Z122, (S)-1-(6-(3-methyl-1H-pyrrolo[2,3-b]pyridin-5-yl)-8-(pyrrolidin-2-yl)-3,4-dihydroisoquinolin-2(1H)-yl)cyclopropyl methyl ketone], the values for the IC50 in assay [1] and in assay [2] were 179 nM and 0.71 nM, respectively.
As to `Cc1c[nH]c2ncc(-c3cc4c(c([C@@H]5CCCN5)c3)CN(C(=O)Nc3nccs3)C4)cc12` [Compound Z386, (S)-6-(3-methyl-1H-pyrrolo[2,3-b]pyridin-5-yl)-4-(pyrrolidin-2-yl)-N-(thiazol-2-yl)isoindoline-2-carboxamide], the results for the IC50 in assay [1] and in assay [2] were 632 nM and 2.74 nM, respectively.
In the same order, the values of `Cc1c[nH]c2ncc(-c3cc4c(c([C@@H]5CCCN5)c3)CCN(C(=O)[C@@H]3CCOC3)C4)cc12` [Compound Z293, (7-(3-methyl-1H-pyrrolo[2,3-b]pyridin-5-yl)-5-((S)-pyrrolidin-2-yl)-3,4-dihydroisoquinolin-2(1H)-yl) ((R)-tetrahydrofuran-3-yl)methanone] are 113 nM and 0.47 nM.
Take `Cc1ncc(C(=O)N2CCc3cc(-c4cnc5[nH]cc(C)c5c4)cc([C@@H]4CCCN4)c3C2)cn1` [Compound Z328, (S)-[6-(3-methyl-1H-pyrrolo[2,3-b]pyridin-5-yl)-8-[pyrrolidin-2-yl]-3,4-dihydroisoquinolin-2(1H)-yl](2-methylpyrimidin-5-yl)methanone]: the IC50 was 90.7 nM in assay [1] and 0.33 nM in assay [2].
In the same order, the values of `Cc1c[nH]c2ncc(-c3cc4c(c([C@@H]5CCCN5)c3)CN(c3ccncn3)CC4)cc12` [Compound Z315, (S)-6-(3-methyl-1H-pyrrolo[2,3-b]pyridin-5-yl)-2-(pyrimidin-4-yl)-8-(pyrrolidin-2-yl)-1,2,3,4-tetrahydroisoquinoline] are 225 nM and 0.29 nM.
